Results as given in patent US20120040953A1, “Compounds for the Treatment of Metabolic Disorders” (PROSIDION LIMITED, priority 2009, published 2012).

Test system: male C57Bl/6 or male ob/ob mice
Test: Oral glucose tolerance test in mice
Format: in vivo
Settings: dose of 30 mg kg^−1, oral
Procedure: The effects of compounds of the invention on oral glucose (Glc) tolerance were evaluated in male C57Bl/6 or male ob/ob mice. Food was withdrawn 5 h before administration of Glc and remained withdrawn throughout the study. Mice had free access to water during the study. A cut was made to the animals' tails, then blood (20 μL) was removed for measurement of basal Glc levels 45 min before administration of the Glc load. Then, the mice were weighed and dosed orally with test compound or vehicle (20% aqueous hydroxypropyl-β-cyclodextrin or 25% aqueous Gelucire 44/14) 30 min before the removal of an additional blood sample (20 μL) and treatment with the Glc load (2-5 g kg^−1 p.o.). Blood samples (20 μL) were then taken 25, 50, 80, 120, and 180 min after Glc administration. The 20 μL blood samples for measurement of Glc levels were taken from the cut tip of the tail into disposable micro-pipettes (Dade Diagnostics Inc., Puerto Rico) and the sample added to 480 μL of haemolysis reagent. Duplicate 20 μL aliquots of the diluted haemolysed blood were then added to 180 μL of Trinders glucose reagent (Sigma enzymatic (Trinder) colorimetric method) in a 96-well assay plate. After mixing, the samples were left at room temperature for 30 min before being read against Glc standards (Sigma glucose/urea nitrogen combined standard set).

CC(C)OC(=O)N1CCC(O[C@H](C)c2nc(-c3cnc(N4C[C@H](c5cc(F)ccc5F)[C@@H](N)C4)nc3)no2)CC1.Cc1ccc(S(=O)(=O)O)cc1 [Example 18, 4-[(R)-1-(3-{2-[(3R,4S)-3-Amino-4-(2,5-difluorophenyl)pyrrolidin-1-yl]pyrimidin-5-yl}-[1,2,4]oxadiazol-5-yl)ethoxy]piperidine-1-carboxylic acid isopropyl ester p-toluenesulfonic acid salt]
reduction in the Glc excursion: > 40%
